Source: ChEMBL document CHEMBL1201862, “PubChem BioAssay data set” (2004)
Calls of active or inactive are those of the source.

How the values were obtained:
[1] = target: T1, Corticotropin-releasing factor receptor 2/Corticotropin-releasing factor-binding protein (Homo sapiens, UniProt P24387+Q13324); experiment: Dose Response confirmation of uHTS hits for small molecule antagonists of the CRF-binding protein and CRF-R2 receptor complex.; assay type: functional; conditions: read-out: IC50_Mean
T1 sequence (Q13324 whole entry): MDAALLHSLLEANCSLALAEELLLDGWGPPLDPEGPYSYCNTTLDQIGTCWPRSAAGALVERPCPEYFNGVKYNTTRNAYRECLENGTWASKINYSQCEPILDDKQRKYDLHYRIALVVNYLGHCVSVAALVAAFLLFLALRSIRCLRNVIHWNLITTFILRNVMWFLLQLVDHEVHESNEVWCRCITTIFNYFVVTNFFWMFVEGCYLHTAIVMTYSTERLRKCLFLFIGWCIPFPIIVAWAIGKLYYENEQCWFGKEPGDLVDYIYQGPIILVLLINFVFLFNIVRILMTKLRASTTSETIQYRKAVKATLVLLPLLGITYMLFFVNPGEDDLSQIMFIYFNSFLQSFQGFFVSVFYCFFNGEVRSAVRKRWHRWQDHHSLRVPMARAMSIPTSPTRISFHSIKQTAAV
T1 sequence (P24387 whole entry): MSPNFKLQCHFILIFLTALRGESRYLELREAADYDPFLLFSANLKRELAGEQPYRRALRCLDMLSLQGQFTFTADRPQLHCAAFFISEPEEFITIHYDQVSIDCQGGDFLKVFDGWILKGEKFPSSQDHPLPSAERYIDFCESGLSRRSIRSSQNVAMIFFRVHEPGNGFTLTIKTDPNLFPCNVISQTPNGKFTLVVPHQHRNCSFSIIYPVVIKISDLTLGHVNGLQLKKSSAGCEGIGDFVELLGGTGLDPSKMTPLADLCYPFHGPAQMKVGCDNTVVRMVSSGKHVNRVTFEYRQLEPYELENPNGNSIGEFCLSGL

[2] = CRF-BP/CRF-R2 complex antagonists, dose response, cell-based, uHTS hits, 384-well (AID 651639); assay type: functional, Homo sapiens; conditions: read-out: IC50_Mean
[3] = target: T1, Corticotropin-releasing factor receptor 2/Corticotropin-releasing factor-binding protein; experiment: activators of CRF receptor 2 with binding protein – uHTS hits, confirmation (AID 602473); assay type: functional; conditions: read-out: EC50_Mean

In the case of `CCN(Cc1ccccc1)C(c1cccc(C#N)c1)c1nnnn1C(C)(C)C` (stereo not drawn), the IC50 [1] is reported as 1 µM (active), the IC50 [2] is reported as 7.23 µM (active) and the EC50 [3] is reported as > 53 µM (inactive).
